≈ marks a conversion by molar mass, not a printed value.
Assays:
S. aureus 6685 = experiment: Antibacterial microplate agar assay (MIC); assay type: cell-based, Staphylococcus aureus; conditions: PYG agar, pH 6, 24 hours, 28° to 37° C.
Procedure: (§1) The antibacterial assay is a standard microplate agar assay using PYG agar, pH 6. PYG agar consists of the following ingredients:
(§2) The MIC is determined by standard methods. The inocula are overnight cultures of the test organisms, diluted so that the final population contains approximately 10^5 cells/ml. The agar plates are incubated at 28° to 37° C. for 24 hours. The lowest antibiotic concentration which allows no growth=MIC or minimum inhibitory concentration.
as §2, with “Assay. The antibacterial assay is a standard microplate agar assay using PYG agar, pH 6. The MIC” for “The MIC”

S. aureus 6690 = experiment: Antibacterial microplate agar assay (MIC); assay type: cell-based, Staphylococcus aureus; conditions: PYG agar, pH 6, 24 hours, 28° to 37° C.
Procedure: as §1, §2
as §2, with “Assay. The antibacterial assay is a standard microplate agar assay using PYG agar, pH 6. The MIC” for “The MIC”

S. aureus UC 76 = experiment: Antibacterial microplate agar assay (MIC); assay type: cell-based, Staphylococcus aureus; conditions: PYG agar, pH 6, 24 hours, 28° to 37° C.
Procedure: as §1, §2
as §2, with “Assay. The antibacterial assay is a standard microplate agar assay using PYG agar, pH 6. The MIC” for “The MIC”

S. faecalis 694 = experiment: Antibacterial microplate agar assay (MIC); assay type: cell-based, Streptococcus faecalis; conditions: PYG agar, pH 6, 24 hours, 28° to 37° C.
Procedure: as §1, §2
as §2, with “Assay. The antibacterial assay is a standard microplate agar assay using PYG agar, pH 6. The MIC” for “The MIC”

E. cloacae 6783 = experiment: Antibacterial microplate agar assay (MIC); assay type: cell-based; conditions: PYG agar, pH 6, 24 hours, 28° to 37° C.
Procedure: as §1, §2
as §2, with “Assay. The antibacterial assay is a standard microplate agar assay using PYG agar, pH 6. The MIC” for “The MIC”

E. coli 45 = experiment: Antibacterial microplate agar assay (MIC); assay type: cell-based; conditions: PYG agar, pH 6, 24 hours, 28° to 37° C.
Procedure: as §1, §2
as §2, with “Assay. The antibacterial assay is a standard microplate agar assay using PYG agar, pH 6. The MIC” for “The MIC”

Enterococcus sp. 701 = experiment: Antibacterial microplate agar assay (MIC); assay type: cell-based; conditions: PYG agar, pH 6, 24 hours, 28° to 37° C.
Procedure: as §1, §2
as §2, with “Assay. The antibacterial assay is a standard microplate agar assay using PYG agar, pH 6. The MIC” for “The MIC”

K. pneumoniae 58 = experiment: Antibacterial microplate agar assay (MIC); assay type: cell-based; conditions: PYG agar, pH 6, 24 hours, 28° to 37° C.
Procedure: as §1, §2
as §2, with “Assay. The antibacterial assay is a standard microplate agar assay using PYG agar, pH 6. The MIC” for “The MIC”

P. stuartii 6570 = experiment: Antibacterial microplate agar assay (MIC); assay type: cell-based; conditions: PYG agar, pH 6, 24 hours, 28° to 37° C.
Procedure: as §1, §2
as §2, with “Assay. The antibacterial assay is a standard microplate agar assay using PYG agar, pH 6. The MIC” for “The MIC”

Ps. aeruginosa 95 = experiment: Antibacterial microplate agar assay (MIC); assay type: cell-based; conditions: PYG agar, pH 6, 24 hours, 28° to 37° C.
Procedure: as §1, §2
as §2, with “Assay. The antibacterial assay is a standard microplate agar assay using PYG agar, pH 6. The MIC” for “The MIC”

S. flexneri 143 = experiment: Antibacterial microplate agar assay (MIC); assay type: cell-based; conditions: PYG agar, pH 6, 24 hours, 28° to 37° C.
Procedure: as §1, §2
as §2, with “Assay. The antibacterial assay is a standard microplate agar assay using PYG agar, pH 6. The MIC” for “The MIC”

S. marcescens 131 = experiment: Antibacterial microplate agar assay (MIC); assay type: cell-based; conditions: PYG agar, pH 6, 24 hours, 28° to 37° C.
Procedure: as §1, §2
as §2, with “Assay. The antibacterial assay is a standard microplate agar assay using PYG agar, pH 6. The MIC” for “The MIC”

S. schottmuelleri 126 = experiment: Antibacterial microplate agar assay (MIC); assay type: cell-based; conditions: PYG agar, pH 6, 24 hours, 28° to 37° C.
Procedure: as §1, §2
as §2, with “Assay. The antibacterial assay is a standard microplate agar assay using PYG agar, pH 6. The MIC” for “The MIC”

Gram-positive bacteria = experiment: Antibacterial activity against Gram-positive bacteria; assay type: cell-based
Procedure: as §1, §2
as §2, with “Assay. The antibacterial assay is a standard microplate agar assay using PYG agar, pH 6. The MIC” for “The MIC”

L-1210 = experiment: Antitumor (in vitro) activity; assay type: cell-based; conditions: L-1210, in vitro
[1] = 60% aq. ethanol

C/C=C(\N=C=S)C(=O)O[C@H]1[C@@H](O[C@H]2C[C@H](OC)[C@@](O)([C@H](C)OC(=O)C(C)C)[C@H](C)O2)[C@@H](O)[C@H]([C@@]2(O)CC(=O)C(=N)C(C(=O)O)=C2O)O[C@@H]1COC(C)=O [Paulomycin B]
Minimum Inhibitory Concentration (S. aureus 6685): 0.50 µg/mL | Minimum Inhibitory Concentration (S. aureus 6690): 2.0 µg/mL | Minimum Inhibitory Concentration (S. aureus UC 76): 0.50 µg/mL | Minimum Inhibitory Concentration (S. faecalis 694): 125 µg/mL | Minimum Inhibitory Concentration (E. cloacae 6783): 500 µg/mL | Minimum Inhibitory Concentration (E. coli 45): 250 µg/mL | Minimum Inhibitory Concentration (Enterococcus sp. 701): 31.2 µg/mL | Minimum Inhibitory Concentration (K. pneumoniae 58): 250 µg/mL | Minimum Inhibitory Concentration (P. stuartii 6570): 250 µg/mL | Minimum Inhibitory Concentration (Ps. aeruginosa 95): 250 µg/mL | Minimum Inhibitory Concentration (S. flexneri 143): 250 µg/mL | Minimum Inhibitory Concentration (S. marcescens 131): 250 µg/mL | Minimum Inhibitory Concentration (S. schottmuelleri 126): 500 µg/mL | adversely affecting the growth of Gram-positive bacteria (Gram-positive bacteria; for example Bacillus subtilis, Staphylococcus aureus, Streptococcus pyogenes and Streptococcus faecalis): adversely affecting the growth of Gram-positive bacteria | activity against various Gram-positive bacteria (Gram-positive bacteria; in words): active against various Gram-positive bacteria | ID50 (L-1210): 8.6 µg/mL (≈ 11.1 µM) | ID90 (L-1210): 21 µg/mL (≈ 27.2 µM) | pKa [1]: 7.4

Reference: patent US4335108A, “Paulomycin A and B and preparation thereof” (The Upjohn Company, priority 1980, dated 1982)
